# Data: patent US10259810B2, “N-sulfonylated pyrazolo[3,4-b]pyridin-6-carboxamides and method of use” (AbbVie S.à.r.l., priority 2015, dated 2019)
# pEC50: −log10 of the molar value.
# Columns and labels:
# Assay type in all cases: cell-based
# [1] = molecular target: T1, ΔF508-CFTR (Homo sapiens, UniProt P13569, DEL508-508); test: CFTR cell surface levels using HRP-tagged ΔF508-CFTR expressing CFBE cells, in the presence of a co-corrector; details: HRP-tagged ΔF508-CFTR CFBE cells, in the presence of 3 μM co-corrector; for pEC50: read-out: EC50
# T1 construct: host or cells: CFBE41o-, doxycycline-inducible
# T1 sequence (P13569 with tags, fused parts or gaps DEL508-508): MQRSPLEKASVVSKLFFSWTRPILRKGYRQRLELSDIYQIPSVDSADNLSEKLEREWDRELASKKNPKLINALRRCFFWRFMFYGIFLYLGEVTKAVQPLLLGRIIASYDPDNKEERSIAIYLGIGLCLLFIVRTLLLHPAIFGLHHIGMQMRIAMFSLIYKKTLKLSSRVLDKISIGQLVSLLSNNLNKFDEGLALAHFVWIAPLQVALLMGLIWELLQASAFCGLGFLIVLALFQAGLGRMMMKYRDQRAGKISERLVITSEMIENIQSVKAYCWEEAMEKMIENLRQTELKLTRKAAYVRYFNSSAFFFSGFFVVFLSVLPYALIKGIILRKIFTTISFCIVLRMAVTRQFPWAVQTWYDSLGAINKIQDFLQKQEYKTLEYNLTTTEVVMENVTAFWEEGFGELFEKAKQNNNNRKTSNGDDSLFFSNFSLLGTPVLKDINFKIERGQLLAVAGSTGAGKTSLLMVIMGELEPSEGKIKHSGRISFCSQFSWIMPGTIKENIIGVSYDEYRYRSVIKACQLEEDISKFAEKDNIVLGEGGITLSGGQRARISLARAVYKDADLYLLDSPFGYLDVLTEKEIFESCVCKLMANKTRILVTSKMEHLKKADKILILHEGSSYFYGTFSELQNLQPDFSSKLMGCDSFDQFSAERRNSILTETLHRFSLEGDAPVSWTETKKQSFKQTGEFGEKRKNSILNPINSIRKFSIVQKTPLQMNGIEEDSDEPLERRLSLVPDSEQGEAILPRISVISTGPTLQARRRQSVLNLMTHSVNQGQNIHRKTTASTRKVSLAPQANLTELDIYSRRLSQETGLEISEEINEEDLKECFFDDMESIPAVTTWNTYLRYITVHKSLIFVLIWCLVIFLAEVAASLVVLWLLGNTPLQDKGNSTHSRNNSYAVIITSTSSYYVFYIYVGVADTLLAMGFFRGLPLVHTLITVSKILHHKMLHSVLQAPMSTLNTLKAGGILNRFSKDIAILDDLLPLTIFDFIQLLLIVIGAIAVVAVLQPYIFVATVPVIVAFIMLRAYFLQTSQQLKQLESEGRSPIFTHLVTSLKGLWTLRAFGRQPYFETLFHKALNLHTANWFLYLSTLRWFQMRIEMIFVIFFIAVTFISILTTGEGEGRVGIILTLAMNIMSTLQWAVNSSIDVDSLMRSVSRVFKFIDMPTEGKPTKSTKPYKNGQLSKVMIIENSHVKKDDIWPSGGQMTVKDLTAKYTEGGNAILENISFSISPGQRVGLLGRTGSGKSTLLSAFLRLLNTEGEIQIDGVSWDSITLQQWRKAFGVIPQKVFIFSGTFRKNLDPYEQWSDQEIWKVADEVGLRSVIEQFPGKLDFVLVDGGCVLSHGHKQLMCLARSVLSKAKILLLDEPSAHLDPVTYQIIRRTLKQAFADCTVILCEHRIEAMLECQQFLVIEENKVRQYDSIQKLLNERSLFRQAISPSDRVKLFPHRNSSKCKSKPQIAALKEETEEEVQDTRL
# Procedure, shortened: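 Chemiluminescent read-out of surface HRP (15 min, dark) after PBS washes. Activity is normalized as 100×(sample−DMSO)/(3 μM co-corrector alone−DMSO).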
# [2] = molecular target: T1, ΔF508-CFTR; test: CFTR cell surface levels using HRP-tagged ΔF508-CFTR expressing CFBE cells, intrinsic corrector capacity; design: % Activation: concentration or dose not given beside the values; details: HRP-tagged ΔF508-CFTR expressing CFBE41o- cells, compound alone (intrinsic corrector capacity), 20 hours at 33° C.; for pEC50: read-out: EC50
# Procedure, shortened: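 Surface ΔF508-CFTR was measured as HRP chemiluminescence from an extracellular-loop-4 tag, expressed as percent activity between DMSO and a […] corrector control.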
# [3] = molecular target: T2, CFTR ΔF508 (Homo sapiens, UniProt P13569, DEL508-508); test: Chronic TECC assay, primary bronchial epithelial cells of CF patients homozygous for CFTR ΔF508 (corrector, co-corrector and potentiator); details: chronic TECC, AUC = full area under the curve upon forskolin stimulation; for EC50: read-out: EC50 (nM) (AUC**); for % Activity at 1 μM (AUC**): test compound at 1 μM; for % Activity at 3 μM (AUC**): test compound at 3 μM
# T2 construct: bronchial epithelial cells isolated from CF patients homozygous for the CFTR ΔF508 mutation; McGill University; Asterand; University of North Carolina hAEC-CF; host or cells: primary human bronchial epithelial cells from CF patients homozygous for ΔF508, differentiated at air-liquid interface
# T2 sequence (P13569 with tags, fused parts or gaps DEL508-508): as above
# Procedure, shortened: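 Primary bronchial epithelial cells from ΔF508-homozygous CF patients on collagen IV-coated Transwells were chronically treated with test compound plus corrector and potentiator, which were re-added before recording. Ieq was derived from PD and Rt in NaCl-Ringer, pH 7.4, at 37° C, with apical amiloride and bilateral forskolin, recorded every 2 min over 20 min. Ieq increase was normalized to controls, and EC50 was taken from per-well concentrations.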
SMILES,% Activation [1] [%],pEC50 [1],% Activation [2] [%],pEC50 [2],EC50 [3] [nM],% Activity at 1 μM (AUC**) [3] [%],% Activity at 3 μM (AUC**) [3] [%]
"CN(C)S(=O)(=O)NC(=O)c1cc(N2CCN(c3ccncc3)CC2)c2c(C3CCC3)nn(C3CCCCC3)c2n1 [Compound 469, 3-cyclobutyl-1-cyclohexyl-N-(dimethylsulfamoyl)-4-[4-(pyridin-4-yl)piperazin-1-yl]-1H-pyrazolo[3,4-b]pyridine-6-carboxamide]",469.4,6.90,253.8,6.69,108,293.3333,–
"CCS(=O)(=O)NC(=O)c1cc(N2CCN(c3ccncc3)CC2)c2c(C3CCC3)nn(C3CCCCC3)c2n1 [Compound 470, 3-cyclobutyl-1-cyclohexyl-N-(ethanesulfonyl)-4-[4-(pyridin-4-yl)piperazin-1-yl]-1H-pyrazolo[3,4-b]pyridine-6-carboxamide]",485.5,6.94,275.4,6.64,–,210,–
"COCCN(C)S(=O)(=O)NC(=O)c1cc(N2CCC(N3CCOCC3)CC2)c2c(C3CCC3)nn(-c3ccc(F)cc3)c2n1 [Compound 471, 3-cyclobutyl-1-(4-fluorophenyl)-N-[(2-methoxyethyl)(methyl)sulfamoyl]-4-[4-(morpholin-4-yl)piperidin-1-yl]-1H-pyrazolo[3,4-b]pyridine-6-carboxamide]",446.07,6.91,240.2,6.64,–,296.6667,–
"CN(C)S(=O)(=O)NC(=O)c1cc(N2CCC(N3CCCCC3)CC2)c2c(C3CCC3)nn(-c3ccc(F)cc3)c2n1 [Compound 472, 4-([1,4'-bipiperidin]-1'-yl)-3-cyclobutyl-N-(dimethylsulfamoyl)-1-(4-fluorophenyl)-1H-pyrazolo[3,4-b]pyridine-6-carboxamide]",399.79,6.60,210.57,6.17,34.2,181.0865,–
"COCC1CCN(c2cc(C(=O)NS(C)(=O)=O)nc3c2c(C2CCC2)nn3-c2ccnc(C3CCOCC3)c2)CC1 [Compound 473, 3-cyclobutyl-N-(methanesulfonyl)-4-[4-(methoxymethyl)piperidin-1-yl]-1-[2-(oxan-4-yl)pyridin-4-yl]-1H-pyrazolo[3,4-b]pyridine-6-carboxamide]",370.7,7.36,166.3,7.15,–,243.3333,–
"COc1cc(-n2nc(C3CCC3)c3c(N4CCC(N5CCOCC5)CC4)cc(C(=O)NS(C)(=O)=O)nc32)ccn1 [Compound 474, 3-cyclobutyl-N-(methanesulfonyl)-1-(2-methoxypyridin-4-yl)-4-[4-(morpholin-4-yl)piperidin-1-yl]-1H-pyrazolo[3,4-b]pyridine-6-carboxamide]",390.2,6.28,194.5,6.24,–,226.6667,–
"C[C@@H](C1CCN(c2cc(C(=O)NS(=O)(=O)N(C)C)nc3c2c(C2CCC2)nn3-c2ccc(F)cc2)CC1)N1CCOCC1 [Compound 480, 3-cyclobutyl-N-(dimethylsulfamoyl)-1-(4-fluorophenyl)-4-{4-[(1S)-1-(morpholin-4-yl)ethyl]piperidin-1-yl}-1H-pyrazolo[3,4-b]pyridine-6-carboxamide]",545.77,7.06,322.45,6.87,–,548.575,–
"COC1CN(S(=O)(=O)NC(=O)c2cc(N3CCC(N4CCOCC4)CC3)c3c(C4CCC4)nn(-c4ccc(F)cc4)c3n2)C1 [Compound 484, 3-cyclobutyl-1-(4-fluorophenyl)-N-(3-methoxyazetidine-1-sulfonyl)-4-[4-(morpholin-4-yl)piperidin-1-yl]-1H-pyrazolo[3,4-b]pyridine-6-carboxamide]",485.6,6.85,216.9,6.91,–,380,–
"O=C(NS(=O)(=O)N1CCOCC1)c1cc(N2CCC(N3CCOCC3)CC2)c2c(C3CCC3)nn(-c3ccc(F)cc3)c2n1 [Compound 487, 3-cyclobutyl-1-(4-fluorophenyl)-N-(morpholine-4-sulfonyl)-4-[4-(morpholin-4-yl)piperidin-1-yl]-1H-pyrazolo[3,4-b]pyridine-6-carboxamide]",404.63,7.16,203.53,6.76,–,340,–
"CC(=O)N1CCN(C2CCN(c3cc(C(=O)NS(=O)(=O)N(C)C)nc4c3c(C3CCC3)nn4-c3ccc(F)cc3)CC2)CC1 [Compound 493, 4-[4-(4-acetylpiperazin-1-yl)piperidin-1-yl]-3-cyclobutyl-N-(dimethylsulfamoyl)-1-(4-fluorophenyl)-1H-pyrazolo[3,4-b]pyridine-6-carboxamide]",480.78,7.02,275.2,6.76,371,271.4141,–
"O=C(NS(=O)(=O)C1CCOC1)c1cc(N2CCC(CN3CCOCC3)CC2)c2c(C3CCC3)nn(-c3ccc(F)cc3)c2n1 (stereo not drawn) [Compound 495, 3-cyclobutyl-1-(4-fluorophenyl)-4-{4-[(morpholin-4-yl)methyl]piperidin-1-yl}-N-(oxolane-3-sulfonyl)-1H-pyrazolo[3,4-b]pyridine-6-carboxamide]",469.08,7.18,242.05,6.66,–,–,262.4635
"CN(C)S(=O)(=O)NC(=O)c1cc(N2CCC(N3CCC(C#N)CC3)CC2)c2c(C3CCC3)nn(-c3ccc(F)cc3)c2n1 [Compound 522, 4-(4-cyano[1,4'-bipiperidin]-1'-yl)-3-cyclobutyl-N-(dimethylsulfamoyl)-1-(4-fluorophenyl)-1H-pyrazolo[3,4-b]pyridine-6-carboxamide]",525.66,7.10,317.9,6.94,21.9,666.6667,–
"CN(C)S(=O)(=O)NC(=O)c1cc(N2CCC(N3CC(C#N)C3)CC2)c2c(C3CCC3)nn(-c3ccc(F)cc3)c2n1 [Compound 523, 4-[4-(3-cyanoazetidin-1-yl)piperidin-1-yl]-3-cyclobutyl-N-(dimethylsulfamoyl)-1-(4-fluorophenyl)-1H-pyrazolo[3,4-b]pyridine-6-carboxamide]",451.33,7.00,236.53,6.91,–,–,460.2177
"CN(C)S(=O)(=O)NC(=O)c1cc(N2CCC(N3CCC(F)CC3)CC2)c2c(C3CCC3)nn(-c3ccc(F)cc3)c2n1 [Compound 525, 3-cyclobutyl-N-(dimethylsulfamoyl)-4-(4-fluoro[1,4'-bipiperidin]-1'-yl)-1-(4-fluorophenyl)-1H-pyrazolo[3,4-b]pyridine-6-carboxamide]",460.3,7.13,274.75,6.86,50.3,477.2665,–
"CN(C)S(=O)(=O)NC(=O)c1cc(N2CCC(N3CCC(F)(F)CC3)CC2)c2c(C3CCC3)nn(-c3ccc(F)cc3)c2n1 [Compound 526, 3-cyclobutyl-4-(4,4-difluoro[1,4'-bipiperidin]-1'-yl)-N-(dimethylsulfamoyl)-1-(4-fluorophenyl)-1H-pyrazolo[3,4-b]pyridine-6-carboxamide]",472.58,6.97,269.23,6.82,14.2,400,–
